Results published in patent publication US8258114B2, “Modulation of glucose-6-phosphatase translocase expression” (Isis Pharmaceuticals, Inc., priority 2004, dated 2012).

Experiments:
db/db mice = test: Fed and fasted plasma glucose in db/db mice (Example 10); format: in vivo, mouse; conditions: 25 mg/kg s.c. twice weekly; for fasted plasma glucose: week 3, overnight fast, saline 343
Method: (§1) Seven-week old male C57B1/6J-Lepr db/db mice (Jackson Laboratory, Bar Harbor, Me.) were fed a diet with a fat content of about 14% and were subcutaneously injected with one or more of the oligomeric compounds of the invention or a control compound at a dose of 25 mg/kg two times per week. Glucose-6-phosphatase translocase antisense oligonucleotides used were ISIS 148985 (SEQ ID NO: 118) and ISIS 149008 (SEQ ID NO: 141). ISIS 116847 (SEQ ID NO: 143), targeted to mouse PTEN, was used as a positive control. The scrambled control oligonucleotide ISIS 141923 ([…], incorporated herein as SEQ ID NO: 144) served as a negative control along with saline-injected animals. ISIS 141923 and ISIS 116847 are chimeric oligonucleotides (“gapmers”) 20 nucleotides in length, composed of a central “gap” region consisting of 10 2′-deoxynucleotides, which is flanked on both sides (5′ and 3′) by five-nucleotide “wings”. The wings are composed of 2′-O-(2-methoxyethyl) nucleotides, also known as 2′-MOE nucleotides. The internucleoside (backbone) linkages are phosphorothioate throughout the oligonucleotide. All cytidine residues are 5-methylcytidines.
The effects of target inhibition on glucose metabolism were evaluated in the db/db mice treated with the oligomeric compounds of the invention. For seven animals per treatment group, plasma glucose (fed) was measured prior to the start of the treatment (week 0) and during weeks 2 and 4 of treatment. Fasted glucose measurements were made during week three, after animals were fasted overnight (about 15 hours). Data are expressed as the averages per treatment group.

[1] = system: glucose-6-phosphatase translocase mRNA; test: Target mRNA reduction in liver of db/db mice (Example 10); format: in vivo, mouse; conditions: 25 mg/kg s.c. twice weekly, end of study
Method: as §1
48 hours after the final treatment, mice were sacrificed and target levels were evaluated in liver. RNA isolation and target mRNA expression level quantitation were performed as described by other examples herein.
Glucose-6-phosphatase translocase mRNA levels in db/db mouse livers were measured at the end of study using RIBOGREEN™ RNA quantification reagent (Molecular Probes, Inc. Eugene, Oreg.) as taught in previous examples above. Unless otherwise noted, data are expressed as the average percent inhibition from 5 animals per treatment group.

[2] = mouse, in vivo, sc, 25 mg/kg
Method: as §1
Patients with the human glycogen storage disease type 1b have mutations in the glucose-6-phosphatase translocase gene. Because one manifestation of these mutations is a defect in hepatic glycogen […] leading to glycogen accumulation in the liver, the db/db mice were further evaluated at the end of the treatment period for liver glycogen stores. Tissue glycogen was measured using the Glucose Trinder Reagent (Sigma-Aldrich, St. Louis, Mo.). Results are presented as the average level from 5 animals per treatment. Glycogen levels of mice treated with saline alone were approximately 46 mg/g of tissue. Levels in mice treated with the positive control antisense compound ISIS 116847 had decreased levels of approximately 30 mg/g. Mice treated with the scrambled control compound ISIS 141923 had levels more similar to saline control of approximately 39 mg/g. Mice treated with ISIS 149008 or 148985, the antisense inhibitors of glucose-6-phosphatase translocase, had glycogen levels of approximately 38 mg/g and 37 mg/g, respectively.

[3] = system: glucose-6-phosphatase translocase mRNA; test: Target mRNA reduction in liver of db/db mice, dose-response study; format: in vivo, mouse
Method: (§2) Seven-week old male C57B1/6J-Lepr db/db mice (Jackson Laboratory, Bar Harbor, Me.) were fed a diet with a fat content of about 14% (Formulab Diet 5008) and were subcutaneously injected with ISIS 116847 (SEQ ID NO: 143), ISIS 141923 (SEQ ID NO: 144), or ISIS 148985 (SEQ ID NO: 118), an antisense inhibitor of glucose-6-phosphatase translocase, at a dose of 25 mg/kg two times per week for 4 weeks. […] Saline-injected animals served as controls. 48 hours after the eighth and final dose was administered, mice were sacrificed and target levels were evaluated in liver. RNA isolation and target mRNA expression level quantitation were performed as described by other examples herein.
Glucose-6-phosphatase translocase mRNA levels in db/db mouse livers were measured at the end of study using RIBOGREEN™ RNA quantification reagent (Molecular Probes, Inc. Eugene, Oreg.) as taught in previous examples above. Data are expressed as the average of 5 animals per treatment group. […] Target mRNA levels were reduced by approximately 21% by ISIS 148985. […] Therefore, antisense inhibitors of glucose-6-phosphatase translocase reduced target mRNA levels in the liver of db/db mice, and ISIS 149008 did so in a dose-dependent manner.

[4] = Plasma neutrophils and lymphocytes in db/db mice (Table 9); format: in vivo, mouse
Method: as §2, with “at a dose of 25 mg/kg two times per week for 4 weeks.” left out
Because mutations in the glucose-6-phosphatase translocase gene responsible for human glycogen storage disease type 1b result in neutropenia, plasma neutrophils and lymphocytes were measured for animals in each treatment group.

[5] = 25 mg/kg twice weekly for 4 weeks
[6] = 25 mg/kg twice weekly 4 weeks (25 mg/mL [sic]), saline 0.9
[7] = 25 mg/kg twice weekly 4 weeks (25 mg/mL [sic]), saline 2.7

CCTTCCCTGAAGGTTCCTCC (chemistry not given here) [ISIS 141923, scrambled control oligonucleotide, negative control, reference compound]
fed plasma glucose (db/db mice; week 0, saline 270): approximately 272 mg/dL | fed plasma glucose (db/db mice; week 2, saline 534): ~538 mg/dL | fasted plasma glucose (db/db mice): approximately 287 mg/dL | fed plasma glucose (db/db mice; week 4, saline 627): ~563 mg/dL | Glucose-6-phosphatase translocase mRNA levels in liver, reduction compared to saline [1]: about 4% | Liver glycogen levels [2]: approximately 39 mg/g | Glucose-6-phosphatase translocase mRNA levels in liver, reduction compared to saline [3, 5]: approximately 1% | Neutrophils Plasma [4, 6]: 0.9 cells/nL | Lymphocytes Plasma [4, 7]: 2.6 cells/nL

CTGCTAGCCTCTGGATTTGA (chemistry not given here) [ISIS 116847, positive control oligonucleotide targeted to mouse PTEN, reference compound]
fed plasma glucose (db/db mice; week 0, saline 270): approximately 267 mg/dL | fed plasma glucose (db/db mice; week 2, saline 534): ~360 mg/dL | fasted plasma glucose (db/db mice): approximately 241 mg/dL | fed plasma glucose (db/db mice; week 4, saline 627): ~334 mg/dL | Glucose-6-phosphatase translocase mRNA levels in liver, reduction compared to saline [1]: about 8% | Liver glycogen levels [2]: approximately 30 mg/g | Glucose-6-phosphatase translocase mRNA levels in liver, reduction compared to saline [3, 5]: approximately 27% | Neutrophils Plasma [4, 6]: 0.8 cells/nL | Lymphocytes Plasma [4, 7]: 3.1 cells/nL

GCTCCATAGCGAGGACTCGA (chemistry not given here) [ISIS 148985]
fed plasma glucose (db/db mice; week 0, saline 270): approximately 267 mg/dL | fed plasma glucose (db/db mice; week 2, saline 534): ~512 mg/dL | fasted plasma glucose (db/db mice): approximately 288 mg/dL | fed plasma glucose (db/db mice; week 4, saline 627): ~552 mg/dL | Glucose-6-phosphatase translocase mRNA levels in liver, reduction compared to saline [1]: approximately 19% | Liver glycogen levels [2]: ~37 mg/g | Glucose-6-phosphatase translocase mRNA levels in liver, reduction compared to saline [3, 5]: approximately 21% | Neutrophils Plasma [4, 6]: 1.0 cells/nL | Lymphocytes Plasma [4, 7]: 3.3 cells/nL

TATACAAGTCGGTTTGCCCT (chemistry not given here) [ISIS 149008]
fed plasma glucose (db/db mice; week 0, saline 270): approximately 272 mg/dL | fed plasma glucose (db/db mice; week 2, saline 534): ~390 mg/dL | fasted plasma glucose (db/db mice): approximately 241 mg/dL | fed plasma glucose (db/db mice; week 4, saline 627): ~347 mg/dL | Glucose-6-phosphatase translocase mRNA levels in liver, reduction compared to saline [1]: approximately 82% | Liver glycogen levels [2]: approximately 38 mg/g | Glucose-6-phosphatase translocase mRNA levels in liver, reduction compared to saline ([3]; 6.25 mg/kg twice weekly for 4 weeks): approximately 45% | Glucose-6-phosphatase translocase mRNA levels in liver, reduction compared to saline ([3]; 12.5 mg/kg twice weekly for 4 weeks): approximately 69% | Glucose-6-phosphatase translocase mRNA levels in liver, reduction compared to saline [3, 5]: approximately 81% | Neutrophils Plasma [4, 6]: 1.0 cells/nL | Lymphocytes Plasma [4, 7]: 3.7 cells/nL | Lymphocytes Plasma ([4]; dose 12.5 mg/mL [sic]): 3.2 cells/nL | Neutrophils Plasma ([4]; dose 12.5 mg/mL [sic]): 0.9 cells/nL | Lymphocytes Plasma ([4]; dose printed 6 mg/mL): 2.8 cells/nL | Neutrophils Plasma ([4]; dose printed 6 mg/mL): 1.1 cells/nL
